In patent US10273279B2, “Protease activated receptor-1 (PAR1) derived cytoprotective polypeptides and related methods” (THE SCRIPPS RESEARCH INSTITUTE, priority 2011, dated 2019):
Where no end group is shown, it is not given here.

Legend:
[1] = system: glycogen synthase kinase 3β (GSK3β) phosphorylation at Ser9; assay: GSK3β Ser9 phosphorylation in endothelial cells; assay type: cell-based, human
Procedure: To further confirm activation of Akt by the TR47-66 peptide, Akt-mediated inactivation of glycogen synthase kinase 3β (GSK3β) via phosphorylation at Ser9 was determined. GSK3β is a well-known downstream substrate for Akt.

[2] = system: Akt phosphorylation at Ser473 in EA.hy.926 human endothelial cells; assay: Akt Ser473 phosphorylation in EA.hy.926 endothelial cells (in-cell Western); assay type: cell-based
Source text: (§1) Activated Protein C (APC) cleaves a synthetic PAR1 tail peptide at Arg^41 and Arg^46; furthermore, APC cleaves SEAP-PAR1 mutants with the mutations R41A or R41Q but not SEAP-PAR1 with both R41Q/R46Q mutations. […] It was thus hypothesized that a new PAR1 N-terminus beginning at residue Asn-47 promotes PAR1 signaling and APC cytoprotective activities. Since phosphorylation of signaling network components is useful for monitoring activation of signaling pathways, the effects of synthetic PAR1 peptides on Akt and ERK1/2 phosphorylation in EA.hy.926 human endothelial cells were studied. Cells were treated for 0, 5 or 30 min with peptides prior to cell fixation, permeabilization of cells and subsequent immunoblotting analysis (“in-cell Western blotting”). Relative phosphorylation of Akt at Ser^473 (pSer^473-Akt) or of ERK1/2 at Thr202/204 (pERK1/2) in endothelial cells was quantified using the LI-COR Odyssey infrared (IR) fluorescence imaging system which permits “in cell” Western blots. The Odyssey permits simultaneous quantification of different antibodies that yield either red or green signals.
(§2) Methods: EA.hy.926 cells (ATCC: CRL-2922) were grown in black clear bottom 96 well plates (Nunc) in DMEM (Invitrogen #12430) supplemented with glutamax (Invitrogen #35050) and 10% FBS (Hyclone #35-011-CV) in a 37° C. cell incubator with a humidified atmosphere and 5% CO2 in air until confluency. Cells were treated for 0, 5 or 30 min with PAR1 peptides TFLL (50 μM), NPND (250 μM) or scr-NPND (250 μM) or with vehicle in serum free media. Subsequently cells were fixed with methanol free 4% para-formaldehyde (Pierce), washed with phosphate buffered saline (PBS; Invitrogen) containing 1% triton X-100 and blocked with Odyssey blocking buffer (Licor). Cells were incubated with rabbit anti-pT202/Y204 ERK1/2 (1/1000; Cell signaling D13.14.4E) or rabbit anti-pSer^473 (1/100; cell signaling D9E) with Odyssey blocking buffer. After washing with PBS/0.1% Tween (1/800), IRDye 800CW-labelled secondary goat anti-rabbit antibodies (Licor) were added to the cells in Odyssey blocking buffer and 1/10,000 Draq5 (Biostatus) for cell normalization. After final washing with PBS/0.1% Tween IR, the fluorescence of bound antibodies was determined using the Odyssey (Licor). Background fluorescence was determined by omitting the primary antibody and subtracting values for controls from all other observed values.

[3] = system: ERK1/2 phosphorylation at Thr202/204 in EA.hy.926 human endothelial cells; assay: ERK1/2 phosphorylation in EA.hy.926 endothelial cells (in-cell Western); assay type: cell-based
Source text: as §1, §2

[4] = system: EA.hy.926 endothelial cells; assay: Staurosporine-induced endothelial cell apoptosis (Apopercentage dye); assay type: cell-based, human; settings: 4 hrs pretreatment; 50 μM NPND, 50 μM scr-NPND or 10 μM TFLL; staurosporine 10 μM
Procedure: Activated Protein C (APC) conveys anti-apoptotic activity to EA.hy.926 cells that requires functional PAR1 receptor and APC binding to the endothelial protein C receptor (EPCR). See, e.g., Mosnier at al., Biochem J. 2003; 373:65-70; and Mosnier at al., Blood. 2007; 109:3161-3172.
Methods: EA.hy.926 cells (ATCC: CRL-2922) were grown in 24 well plates in DMEM (Invitrogen #12430) supplemented with glutamax (Invitrogen #35050) and 10% FBS (Hyclone #35-011-CV) in a 37° C. cell incubator with a humidified atmosphere and 5% CO2 in air until confluency. Cells were treated for 4 hrs with vehicle control, 50 μM NPND, 50 μM scr-NPND or 10 μM TFLL after which staurosporine (10 μM) and the Apopercentage dye (Biocolor) were added according the manufacturer's instructions. After 1 hr cells were washed with 2×1 ml PBS and 110 μl of the dye release agent was added to the cells. Subsequently 100 μl aliquots were transferred to a black 96 well plate and fluorescence was measured (530 nm excitation/580 nm emission). Apoptosis was expressed as a percentage of cells treated with 10 mM H2O2 for which apoptosis was set at 100%.

SEAP-PAR1 = SEAP-PAR1 cleavage reporter on transfected HEK-293 cells (SEAP release); assay type: cell-based, human; settings: independent of EPCR
Source text: To facilitate analysis of APC-mediated PAR-1 activation, we created a full-length PAR-1 construct linked at the N-terminus to an alkaline phosphatase reporter group (SEAP). Selection of stable cell lines expressing both endothelial protein C receptor (EPCR) (wt or E86A) and SEAP-PAR1 allowed for a reliable and reproducible analysis of EPCR-dependent PAR-1 activation by APC. Mass-spec analysis of cleavage fragments generated by APC of a synthetic PAR-1 N-terminal tail peptide (TR33-62) identified both Arg^41 and Arg^46 as potential cleavage sites for APC proteolysis, as noted above. […] R41Q-SEAP-PAR1 was cleaved by APC in the presence of EPCR. This surprising result was also obtained for R41A-SEAP PAR1.
2009; 113:5970-5978. SEAP-PAR1, either in the presence or absence of wt-EPCR, were transfected into HEK-293 cells to obtain stable cells expressing SEAP-PAR1 or wt-EPCR/SEAP-PAR1. Mutations in SEAP-PAR1 were introduced using the Quickchange method (Agilent). Cells were grown in 96-wells plates to confluency in Dulbeco's modified Eagle media (DMEM): Ham's F-12 (Invitrogen) supplemented with penicillin-streptomycin-glutamine (PSG) (Gibco) and 10% fetal bovine serum (Omega) in a humidified atmosphere at 37° C. and 5% CO2 Cells were washed with Hank's balanced salt solution (HBSS; Invitrogen) supplemented with 1.3 mM CaCl2, 0.6 mM MgCl2 and 0.1% endotoxin free BSA (Calbiochem) and incubated with APC. After 60 min, SEAP release was determined using 1-step PNPP (Pierce). Values were corrected for background activity derived from the same cells incubated in the absence of APC and expressed as a percentage of total SEAP available on the cell membrane.

[5] = 0, 5 or 30 min, TFLL 50 μM, NPND 250 μM, scr-NPND 250 μM

CC(C)c1ccc(Cn2ccc3c4c(N)nc(NC5CC5)nc4ccc32)cc1 [SCH79797]
effect on TR47-66-induced Ser9-GSK3β phosphorylation ([1]; PAR1 antagonist added to TR47-66): inhibited

TFLLRNPNDK (not fully specified) [reference compound]
pSer473-Akt (Akt phosphorylation) [2, 5]: essentially no effect
Ser473-Akt phosphorylation (activation of Akt) ([2]; Example 7, under the employed experimental conditions): neither thrombin nor TRAP induced
ERK1/2 phosphorylation (pERK1/2) [3, 5]: quickly but transiently stimulated
activation of ERK1/2 ([3]; Example 7): did so
inhibition of staurosporine-induced endothelial cell apoptosis [4]: did not convey detectable anti-apoptotic effects
phosphorylation of GSK3β at Ser9 ([1]; Example 7): did not result in Ser9-GSK3β phosphorylation

elastase [reference compound]
cleavage of all PAR1 constructs on cells (SEAP-PAR1): cleaved all PAR1 constructs on cells with similar efficacy
